From patent US4496551A (priority 1983, dated 1985) come the findings set out here.

In one series the test system is cucumber seedlings. The series can be described thus: phytotoxicity on cucumber seedlings. The conditions noted are these: 100 ppm. In kind it is in vivo. Details: key: G: growth reduction; H: hormonal effects.
For a further series, the system named is Venturia inaequalis. The series can be described thus: apple scab control on apple seedlings. It is filed as in vivo. To be noted: Venturia inaequalis; 100 ppm. A digest of the protocol: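 Apple seedlings sprayed to run-off with 100 ppm compound suspension (6% acetone, 250 ppm TREM 014 surfactant). Inoculated next day with Venturia inaequalis spores; 24 hours at 20° in saturated humidity, then 10-12 days in growth room. Scab lesions compared with untreated plants.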

Series [1] concerns Puccinia recondita var. tritici. The series can be described thus: wheat leaf rust control on wheat seedlings. It is filed as in vivo. To be noted: 100 ppm, sprayed day before inoculation. A digest of the protocol: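 Compounds at 100 ppm (6% acetone, 250 ppm polyhydric alcohol ester surfactant in water) sprayed to run-off on wheat seedlings; inoculated next day with P. recondita spores. Kept 24 h at saturated humidity, 20°, then 7 days in growth room before rust pustule rating.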

The test system of a further series is Pyricularia oryzae. The series can be described thus: whole plant or invertebrate. It is filed as in vivo. The conditions noted are these: 168 h, read-out: % Control of Rice Blast.
The test system of the next series is Helminthosporium maydis. The series can be described thus: southern corn leaf blight control on corn seedlings. To be noted: Bipolaris maydis, 168 h. It is filed as in vivo. A digest of the protocol: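 Corn seedlings were sprayed to run-off with 100 ppm compound (6% acetone, 250 ppm TREM 014), inoculated next day with H. maydis spores, then kept 24 h at 20° in saturated humidity and 7 more days in a growth room. Lesions were rated as disease score.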

Another series relates to Erysiphe cichoracearum. Briefly: cucumber powdery mildew control on cucumber seedlings. It is filed as in vivo. To be noted: Golovinomyces cichoracearum, 168 h, 7 days. A digest of the protocol: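 Compounds at 100 ppm in water with 6% acetone and 250 ppm TREM 014 surfactant, sprayed to run-off on cucumber seedlings. Inoculation with Erysiphe cichoracearum spores the following day; disease rated after 7 days in a growth room against untreated plants.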

For another series, the system named is Cercospora arachidicola. Briefly: peanut early leafspot control on peanut seedlings. It is filed as in vivo. The conditions noted are these: Mycosphaerella arachidis, 336 h. A digest of the protocol: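 Compounds dissolved in acetone (6% of final volume) and suspended at 100 ppm in water with 250 ppm TREM 014, sprayed to run-off on seedlings. Cercospora arachidicola inoculated next day; 24 h saturated humidity at 27°, then 14 days growth room before disease and leafspot rating.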

The next series has as its system Phytophthora infestans. The series can be described thus: whole plant or invertebrate. In kind it is in vivo. The conditions noted are these: Phytophthora infestans, in Solanum lycopersicum, 168 h, read-out: % Control of Tomato Late Blight.
In another series the test system is Rhizoctonia solani. Briefly: rice sheath blight control on rice seedlings. In kind it is in vivo. The conditions noted are these: Rhizoctonia solani, 168 h, 7 days. A digest of the protocol: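 Rice seedlings sprayed to run-off with 100 ppm compound suspension (6% acetone, 250 ppm surfactant), then inoculated next day with bran/mycelium of Rhizoctonia solani. After 7 days in a growth room, sheath blight disease was rated.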

The next series deals with Erysiphe graminis. Briefly: barley powdery mildew control on barley seedlings. In kind it is in vivo. The conditions noted are these: Blumeria graminis, 168 h; 100 ppm, 7 days. The protocol: Several compounds of the previous examples were again dissolved in acetone in an amount equal to 6% of the final volume and then suspended at a concentration of 100 ppm in purified water containing 250 ppm of the surfactant TREM 014 (polyhydric alcohol esters). This suspension was sprayed to the point of run-off on barley seedlings. The following day, the plants were inoculated with a spore suspension of the fungus Erysiphe graminis, causal agent of barley powdery mildew, and incubated in a growth room for 7 days. Disease ratings were then made. Treated plants had little or no powdery mildew in contrast to untreated plants which were covered with powdery mildew.

The test system of series [2] is Pythium aphanadermatum. Briefly: Pythium control on coated corn seeds. It is filed as in vivo. To be noted: 504 h, 2 gm/kg seed, 49° F. 2 weeks then 70° F. 1 week. The protocol: Several compounds of the previous examples were incorporated into a proprietary formulation and used to coat corn seeds at a rate of 2 gm/kg seed. After being thoroughly coated, the seeds were allowed to air dry at room temperature. The seeds were then planted into soil amended with a mixture of the fungus Pythium aphanadermatum, sand, and corn meal at a rate sufficient to kill most untreated seeds. The seeds were held at 49° F. for 2 weeks and then at 70° F. for 1 additional week. After this time disease ratings were made.

For the next series, the system named is 5 Phytophthora species. It is filed as cell-based. The conditions noted are these: 200.0 ppm in agar, 22° C., 6 days; controlled = radial growth 1 mm or less.
Series [3] relates to Pythium aphanadermatum. The series can be described thus: Pythium control on coated cotton seeds. It is filed as in vivo. To be noted: 168 h. The source says: Several compounds of the previous examples were incorporated into a proprietary formulation and used to coat cotton seeds at a rate of 2 gm/kg seed. After being thoroughly coated, the seeds were allowed to air dry at room temperature. The cotton seeds were then planted into soil amended with the fungus Pythium aphanadermatum, sand, and corn meal at a rate sufficient to kill most untreated seeds. The seeds were held at room temperature for 1 week, after which time disease ratings were made.

In the case of `C[Si](C)(Cn1ccnc1)c1ccccc1C(F)(F)F` [(1H-Imidazol-1-ylmethyl)dimethyl(2-trifluoromethylphenyl)silane], the “Phytotoxicity (growth reduction or hormonal effects)” value with cucumber seedlings is recorded as “G”. The pest or weed control at 100 ppm with Venturia inaequalis was determined as 0%; in [1], 0%; with Pyricularia oryzae it was 0%; in the series with Helminthosporium maydis, 90%; in the series on Erysiphe cichoracearum, 100%; with Cercospora arachidicola it was 0%. For the same compound, the values for the pest or weed control at 100 ppm in the series with Phytophthora infestans and in the series with Rhizoctonia solani were 0% and 80%, respectively.

As to `C[Si](Cn1ccnc1)(c1ccc(Cl)cc1)c1ccc(Cl)cc1` [bis(4-Chlorophenyl)(1H-imidazol-1-ylmethyl)methylsilane], the pest or weed control at 100 ppm in the series on Erysiphe graminis turned out to be 100%; in the series on Venturia inaequalis it was 0%; in [1], 0%; in the series on Pyricularia oryzae, 0%; in the series on Helminthosporium maydis, 60%; in the series on Erysiphe cichoracearum it was 100%. The pest or weed control at 100 ppm in the series with Cercospora arachidicola, with Phytophthora infestans and in the series with Rhizoctonia solani was 0% each time.

In the case of `COc1ccccc1[Si](C)(C)Cn1ccnc1` [(1H-Imidazol-1-ylmethyl)(2-methoxyphenyl)dimethylsilane], the “Phytotoxicity (growth reduction or hormonal effects)” value with cucumber seedlings was “G”. The pest or weed control at 100 ppm in the series on Venturia inaequalis is 60%; in series [1] it was 0%; with Pyricularia oryzae, 0%; in the series on Helminthosporium maydis, 0%; in the series with Erysiphe cichoracearum, 100%; in the series with Cercospora arachidicola it was 0%. Besides, the pest or weed control at 100 ppm with Phytophthora infestans was found to be 0%; with Rhizoctonia solani, 90%.

Turning to `C[Si](C)(Cn1ccnc1)c1ccc(OC(F)(F)F)cc1` [Dimethyl(1H-imidazol-1-ylmethyl)(4-trifluoromethoxyphenyl)silane], the “Phytotoxicity (growth reduction or hormonal effects)” value with cucumber seedlings is reported as “G”. For the same compound, the pest or weed control at 100 ppm with Venturia inaequalis is 50%; in series [1] it was 100%; in the series on Pyricularia oryzae, 90%; in the series with Helminthosporium maydis, 0%; with Erysiphe cichoracearum it was 100%; with Cercospora arachidicola it was 90%. For the same compound, the pest or weed control at 100 ppm in the series on Phytophthora infestans and in the series with Rhizoctonia solani was 0% throughout.

As for `C[Si](C)(Cn1ccnc1)c1cc(Cl)cc(Cl)c1` [(3,5-Dichlorophenyl)dimethyl(1H-imidazol-1-ylmethyl)silane], the “Phytotoxicity (growth reduction or hormonal effects)” value in the series with cucumber seedlings is “G”. Moreover, the pest or weed control at 100 ppm in the series on Venturia inaequalis stood at 50%; in series [1], 0%; in the series on Pyricularia oryzae, 0%; with Helminthosporium maydis, 0%; with Erysiphe cichoracearum, 100%; in the series on Cercospora arachidicola it was 0%. For the same compound, the figures for the pest or weed control at 100 ppm in the series on Phytophthora infestans and in the series on Rhizoctonia solani were 0% and 90%, respectively.

For `C[Si](C)(Cn1ccnc1)c1ccc(Oc2ccc(Cl)cc2)cc1` [[4-(4-Chlorophenoxy)phenyl]dimethyl(1H-imidazol-1-ylmethyl)silane], the pest or weed control at 100 ppm was determined as 0% in the series with Venturia inaequalis; 90% in series [1]; 100% in the series on Pyricularia oryzae; 0% in the series on Helminthosporium maydis; 100% in the series on Erysiphe cichoracearum; 0% in the series on Cercospora arachidicola. Besides, the pest or weed control at 100 ppm with Phytophthora infestans turned out to be 0%; in the series with Rhizoctonia solani, 70%. The compound further gave a pest or weed control at 2000 mg/kg with Pythium aphanadermatum [2] of 0%. The “No. of 5 Phytophthora species controlled in vitro” value in the series with 5 Phytophthora species came out at 0.

Regarding `COc1ccc([Si](C)(C)Cn2ccnc2)cc1` [Dimethyl(1H-imidazol-1-ylmethyl)(4-methoxyphenyl)silane], the pest or weed control at 100 ppm in the series on Erysiphe graminis amounted to 100%; with Venturia inaequalis, 0%; in series [1], 60%; in the series with Pyricularia oryzae, 0%; with Helminthosporium maydis, 0%; in the series on Erysiphe cichoracearum, 100%. Further, the pest or weed control at 100 ppm in the series on Cercospora arachidicola, in the series on Phytophthora infestans and with Rhizoctonia solani was 0% each time. The “No. of 5 Phytophthora species controlled in vitro” value with 5 Phytophthora species came out at 0.

For `Cc1ccc([Si](C)(C)Cn2ccnc2)cc1` [(1H-Imidazol-1-ylmethyl)dimethyl(4-methylphenyl)silane], the “Phytotoxicity (growth reduction or hormonal effects)” value with cucumber seedlings was “G”. In addition, the pest or weed control at 100 ppm came out at 0% in the series on Venturia inaequalis; 0% in series [1]; 0% with Pyricularia oryzae; 0% in the series with Helminthosporium maydis; 100% in the series on Erysiphe cichoracearum; 0% in the series with Cercospora arachidicola. The pest or weed control at 100 ppm in the series with Phytophthora infestans and with Rhizoctonia solani was 0% each time. For the same compound, the pest or weed control at 2000 mg/kg was found to be 30% in the series on Pythium aphanadermatum [2] and 0% in the series with Pythium aphanadermatum [3] (2 gm/kg seed, 1 week).

Turning to `C[Si](C)(Cn1ccnc1)c1ccc(Cl)c(Cl)c1` [(3,4-Dichlorophenyl)(1H-imidazol-1-ylmethyl)dimethylsilane], the pest or weed control at 100 ppm with Erysiphe graminis came to 80%; in the series with Venturia inaequalis it was 80%; in series [1], 0%; in the series with Pyricularia oryzae, 0%; in the series with Helminthosporium maydis, 70%; in the series on Erysiphe cichoracearum, 100%. Further, the pest or weed control at 100 ppm with Cercospora arachidicola, in the series with Phytophthora infestans and in the series on Rhizoctonia solani was 0% in each case. The pest or weed control at 2000 mg/kg with Pythium aphanadermatum [2] worked out at 30%. For the same compound, the pest or weed control at 500 mg/kg in the series on Pythium aphanadermatum [3] (0.5 gm/kg seed) stood at 15%.

`C[Si](Cn1ccnc1)(c1ccc(F)cc1)c1ccc(F)cc1` [bis(4-Fluorophenyl)(1H-imidazol-1-ylmethyl)methylsilane]: the pest or weed control at 100 ppm in the series on Venturia inaequalis came out at 100%; in series [1] it was 100%; in the series with Pyricularia oryzae, 0%; with Helminthosporium maydis, 60%; in the series with Erysiphe cichoracearum, 100%; with Cercospora arachidicola, 100%. Moreover, the pest or weed control at 100 ppm was 0% with Phytophthora infestans and 90% with Rhizoctonia solani. Further, in the series with 5 Phytophthora species, the “No. of 5 Phytophthora species controlled in vitro” value was 0.

As to `C[Si](C)(Cn1ccnc1)c1cccc2ccccc12` [(1H-Imidazol-1-ylmethyl)dimethyl(1-naphthalenyl)silane], the pest or weed control at 100 ppm in the series on Erysiphe graminis was determined as 0%; in the series with Venturia inaequalis it was 40%; in series [1], 0%; with Pyricularia oryzae, 0%; in the series with Helminthosporium maydis it was 0%; with Erysiphe cichoracearum, 100%. The pest or weed control at 100 ppm in the series with Cercospora arachidicola, with Phytophthora infestans and in the series on Rhizoctonia solani was 0% throughout. The compound further returned a pest or weed control at 2000 mg/kg with Pythium aphanadermatum [2] of 27%.
